Data from patent US20080260659A1, “Compositions” (GIVAUDAN SA, priority 2005, published 2008).

Columns and labels:
Type in all cases: cell-based
[1] = tested on: Aspergillus niger ATCC 16404 spores; experiment: Sporicidal effect of test compounds in water; settings: 0.1% test compound, 7 days
Description: Aspergillus niger ATCC 16404 spores are added to water to obtain a density of 3×10^5 spores 1 ml. In order to prepare the spores, the test strain is grown for 5 days on potato dextrose agar at room temperature. The spores are harvested with a solution containing 0.1% Tween 80, peptone 0.1% and NaCl 0.85% and the spore concentration is adjusted to the density indicated above.
Test compounds are dissolved in dipropyleneglycol to a concentration of 20%.
These stock solutions are added to 10 ml aliquots of the spore suspension to obtain a final concentration of the test compounds of 0.1%. The sporicidal effect is shown by a reduction of spore counts after 7 days.
The reduction factor is determined as follows. Aliquots of the above prepared suspension of microorganisms (here: spore suspension prepared as described above) are plated on a suitable agar medium (see above) and the developing colonies are counted both for samples with test compound and for a negative probe (water). The count of the negative control is divided by the count of the test compound and thereby the reduction factor is determined. A negative control (water) accordingly has a reduction factor of 1 (no effect on the microorganism).

[2] = tested on: Aspergillus niger ATCC 16404 spores; experiment: Sporicidal effect in a cosmetic cream; settings: cosmetic cream pH 5,5; 0.1% 4-hydroxybenzaldehyde, no parabens
Description: (§1) A cosmetic cream (pH 5,5) for application to the human skin is formulated as follows (in % w/w): […]
(§2) Glyceryl-monostearate, Sweet almond oil, Cetyl-stearyl-alcohol and Glyceryl dilaurate are melted at 80° C. Xanthan gum is dispersed into glycerine. Arginine is dissolved in water and heated to 75° C. The Xanthan gum—glycerin suspension is added to the heated water phase, the heated oil phase is added and the suspension is stirred at 300 rpm for 10 min whilst being cooled down slowly. Finally, a homogeneous emulsion is made with a high speed homogenizer at 5000 rpm.
Test samples of cream contain different amounts of preservatives and/or preservative enhancer. The preservative and preservative enhancer is added to an aliquot of 10 g of the cream in 50 ml tubes in a concentration as shown in the table below. After addition of the preservative/preservative enhancer, the cream is thoroughly mixed to achieve a homogeneous distribution. […]
After regular test intervals, samples of 1 g cream are removed and added to 20 ml of a neutralizer solution containing 0.2% lecithin, 2% Tween 80 and 0.5% NaCl. […] After 48 h to 72 h the number of surviving colony forming units (and therefore surviving spores) are counted.
(§3) The count of the negative control is divided by the count of the probe and thereby the reduction factor is determined. […]

[3] = tested on: Staphylococcus aureus (DSMZ 799) and Pseudomonas aeruginosa (ATCC 15442); experiment: Bactericidal effect in a cosmetic cream (mixed inoculum 1:1); settings: cosmetic cream pH 5,5; 0.1% 4-hydroxybenzaldehyde, no parabens
Description: as §1, §2
Test samples of cream contain different amounts of preservatives and/or preservative enhancer. The preservative and preservative enhancer is added to an aliquot of 10 g of the cream in 50 ml tubes in a concentration as shown in the table below. After addition of the preservative/preservative enhancer, the cream is thoroughly mixed to achieve a homogeneous distribution.
After 1-3 days of equilibration of the cream (storage at room temperature to achieve a homogenous partitioning of compounds between oil and water phase), […]
Aliquots of these suspended and diluted samples are plated on tryptic soy agar supplemented with 0.5% Tween 80 and then incubated for 24 h at 37° C. Surviving bacteria are counted.
as §3

## C=CCCCCCCCCO [9-decenol, reference compound]
[1]
  Sporicidal effect / reduction of spore counts: significant sporicidal effect

## COc1ccc(C=O)cc1 [4-methoxy-benzaldehyde]
[1]
  Sporicidal effect / reduction of spore counts: No significant reduction of spore counts

## O=Cc1ccc(O)cc1 [4-hydroxybenzaldehyde]
[2]
  reduction factor 7 d fungal spores: 1
[1]
  Sporicidal effect / reduction of spore counts: No significant reduction of spore counts
[3]
  reduction factor 24 h bacteria: 1

## CC(CC=O)CCc1ccccc1 (stereo not drawn) [Mefranal, 3-methyl-5-phenylpentanal, reference compound]
[1]
  Sporicidal effect / reduction of spore counts: significant sporicidal effect
